# According to patent US20070225278A1, “Methods for treating cognitive and other disorders” (priority 2006, published 2007):
# Experiments:
# [1] = Antidepressant-like effects (MED), Table 2; assay type: in vivo; settings: minimal effective dose
# Excerpt: Table 2, below, summarizes the dose at which antidepressant-like effects are observed, the dose at which sexual dysfunction occurs, and the therapeutic window.
# [2] = test system: rats; experiment: 5-choice serial reaction time test (5CSRT), variable ITI; assay type: in vivo, rat; settings: 1 mg/kg ip, 10 and 7 sec ITI, p<0.05 vs vehicle
# Excerpt: The 5-choice serial reaction time task is a behavioral assay that is used to measure attention and impulsivity in rats. Rats are trained to respond correctly to aperture illuminations reinforced to food rewards until they reach >70% correct responses during a 30-minute baseline session. Once animals reach baseline criteria, a variable stimulus duration (SD) and variable inter-trial interval (ITI) test can be used to manipulate normal baseline performance. […] When the ITI is increased from that used during baseline training impulsivity, as measured by premature responses, is increased. Compounds and manipulations that improve attention will improve performance and those that decrease impulsivity will decrease premature responses.
# 5CSRT: The test apparatus consisted of ten 25×25 cm aluminum chambers (Med Associates Inc., St. Albans, Vt.). The rear wall of each chamber was concavely curved, containing five accessible apertures, each 2.5 cm square, and 4 cm deep positioned 2 cm above floor level. […]
# 5CSRT Training: Prior to drug treatments, rats were trained to discriminate a brief visual stimulus light presented randomly in one of the five spatial locations. […] A single nose-poke in this opening during the period of illumination (signal period), or during the 5 second afterwards (limited hold) was reinforced by the delivery of a food pellet and a correct response was recorded. […]
# [3] = test system: male Sprague Dawley CD rats; experiment: Reversal of DOI induced deficits in PPI; settings: significant at 17 mg/kg IP (3-30 mg/kg tested); DOI 3 mg/kg IP
# [4] = test system: male Sprague Dawley CD rats; experiment: Reversal of d-amphetamine induced deficits in pre-pulse inhibition (PPI); settings: 3-17 mg/kg IP, d-amphetamine 4 mg/kg SC
structure (smiles),measurement,setting,value
c1cc2c3c(c1)[C@H]1CCC[C@H]1N3CCNC2 [Compound 1],Antidepressant-like effects (MED mg/kg),[1],0.3 mg/kg
same,premature responding,[2],statistically significant decrease
same,attenuation of DOI induced disruption in gating (PPI),[3],significantly attenuated
same,attenuation of amphetamine induced deficit in PPI,[4]; all doses tested,significantly attenuated
same,effect on startle alone responding,[4],without having a significant effect
